Results reported in ChEMBL document CHEMBL4507305, “Data for DCP probe TP-024” (2021).
Calls of active or inactive are those of the source. The rule behind the calls is not given here.

Columns and labels:
[1] = biological target: Serine/threonine-protein kinase N1 (Homo sapiens) (UniProt Q16512); conditions: Compound concentration 1000.0 nM
[2] = biological target: Rho-associated protein kinase 1 (Homo sapiens) (UniProt Q13464); conditions: Compound concentration 1000.0 nM
[3] = biological target: Casein kinase I isoform gamma-2 (Homo sapiens) (UniProt P78368); conditions: Compound concentration 1000.0 nM
[4] = biological target: Interleukin-1 receptor-associated kinase 1 (Homo sapiens) (UniProt P51617); conditions: Compound concentration 1000.0 nM
Sequence of Interleukin-1 receptor-associated kinase 1 (Homo sapiens) (P51617 whole entry, looked up): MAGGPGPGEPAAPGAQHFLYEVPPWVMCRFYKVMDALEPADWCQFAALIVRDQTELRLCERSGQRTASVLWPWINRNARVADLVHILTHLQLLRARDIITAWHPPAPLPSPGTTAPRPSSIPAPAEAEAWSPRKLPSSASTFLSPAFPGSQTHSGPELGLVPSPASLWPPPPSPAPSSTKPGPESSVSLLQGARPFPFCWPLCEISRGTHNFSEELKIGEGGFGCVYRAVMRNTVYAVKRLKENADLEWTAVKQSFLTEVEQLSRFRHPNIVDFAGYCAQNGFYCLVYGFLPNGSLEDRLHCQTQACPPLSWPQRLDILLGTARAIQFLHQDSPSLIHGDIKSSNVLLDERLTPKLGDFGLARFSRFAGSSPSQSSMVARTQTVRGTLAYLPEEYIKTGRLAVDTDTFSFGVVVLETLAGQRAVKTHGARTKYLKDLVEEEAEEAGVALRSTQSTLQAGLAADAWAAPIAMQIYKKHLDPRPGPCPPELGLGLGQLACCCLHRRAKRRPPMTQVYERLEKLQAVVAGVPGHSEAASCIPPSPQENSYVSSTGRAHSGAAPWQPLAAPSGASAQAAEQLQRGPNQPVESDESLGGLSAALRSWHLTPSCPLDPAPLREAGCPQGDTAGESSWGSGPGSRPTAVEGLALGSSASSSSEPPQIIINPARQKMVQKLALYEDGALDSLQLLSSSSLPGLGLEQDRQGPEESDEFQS

[5] = biological target: Receptor tyrosine-protein kinase erbB-2 (Homo sapiens) (UniProt P04626); conditions: Compound concentration 1000.0 nM
[6] = biological target: Ephrin type-A receptor 8 (Homo sapiens) (UniProt P29322); conditions: Compound concentration 1000.0 nM
[7] = biological target: Homeodomain-interacting protein kinase 2 (Homo sapiens) (UniProt Q9H2X6); conditions: Compound concentration 1000.0 nM
[8] = biological target: Cyclin-dependent kinase 11B (Homo sapiens) (UniProt P21127); conditions: Compound concentration 1000.0 nM
[9] = biological target: G-protein coupled receptor 52 (Homo sapiens, UniProt Q9Y2T5); experiment: CHO-based cAMP assay (human); format: functional
[10] = biological target: Ribosomal protein S6 kinase beta-1 (Homo sapiens) (UniProt P23443); conditions: Compound concentration 1000.0 nM
[11] = biological target: Transient receptor potential cation channel subfamily M member 6 (Homo sapiens) (UniProt Q9BX84); conditions: Compound concentration 1000.0 nM
Sequence of Transient receptor potential cation channel subfamily M member 6 (Homo sapiens) (Q9BX84 whole entry): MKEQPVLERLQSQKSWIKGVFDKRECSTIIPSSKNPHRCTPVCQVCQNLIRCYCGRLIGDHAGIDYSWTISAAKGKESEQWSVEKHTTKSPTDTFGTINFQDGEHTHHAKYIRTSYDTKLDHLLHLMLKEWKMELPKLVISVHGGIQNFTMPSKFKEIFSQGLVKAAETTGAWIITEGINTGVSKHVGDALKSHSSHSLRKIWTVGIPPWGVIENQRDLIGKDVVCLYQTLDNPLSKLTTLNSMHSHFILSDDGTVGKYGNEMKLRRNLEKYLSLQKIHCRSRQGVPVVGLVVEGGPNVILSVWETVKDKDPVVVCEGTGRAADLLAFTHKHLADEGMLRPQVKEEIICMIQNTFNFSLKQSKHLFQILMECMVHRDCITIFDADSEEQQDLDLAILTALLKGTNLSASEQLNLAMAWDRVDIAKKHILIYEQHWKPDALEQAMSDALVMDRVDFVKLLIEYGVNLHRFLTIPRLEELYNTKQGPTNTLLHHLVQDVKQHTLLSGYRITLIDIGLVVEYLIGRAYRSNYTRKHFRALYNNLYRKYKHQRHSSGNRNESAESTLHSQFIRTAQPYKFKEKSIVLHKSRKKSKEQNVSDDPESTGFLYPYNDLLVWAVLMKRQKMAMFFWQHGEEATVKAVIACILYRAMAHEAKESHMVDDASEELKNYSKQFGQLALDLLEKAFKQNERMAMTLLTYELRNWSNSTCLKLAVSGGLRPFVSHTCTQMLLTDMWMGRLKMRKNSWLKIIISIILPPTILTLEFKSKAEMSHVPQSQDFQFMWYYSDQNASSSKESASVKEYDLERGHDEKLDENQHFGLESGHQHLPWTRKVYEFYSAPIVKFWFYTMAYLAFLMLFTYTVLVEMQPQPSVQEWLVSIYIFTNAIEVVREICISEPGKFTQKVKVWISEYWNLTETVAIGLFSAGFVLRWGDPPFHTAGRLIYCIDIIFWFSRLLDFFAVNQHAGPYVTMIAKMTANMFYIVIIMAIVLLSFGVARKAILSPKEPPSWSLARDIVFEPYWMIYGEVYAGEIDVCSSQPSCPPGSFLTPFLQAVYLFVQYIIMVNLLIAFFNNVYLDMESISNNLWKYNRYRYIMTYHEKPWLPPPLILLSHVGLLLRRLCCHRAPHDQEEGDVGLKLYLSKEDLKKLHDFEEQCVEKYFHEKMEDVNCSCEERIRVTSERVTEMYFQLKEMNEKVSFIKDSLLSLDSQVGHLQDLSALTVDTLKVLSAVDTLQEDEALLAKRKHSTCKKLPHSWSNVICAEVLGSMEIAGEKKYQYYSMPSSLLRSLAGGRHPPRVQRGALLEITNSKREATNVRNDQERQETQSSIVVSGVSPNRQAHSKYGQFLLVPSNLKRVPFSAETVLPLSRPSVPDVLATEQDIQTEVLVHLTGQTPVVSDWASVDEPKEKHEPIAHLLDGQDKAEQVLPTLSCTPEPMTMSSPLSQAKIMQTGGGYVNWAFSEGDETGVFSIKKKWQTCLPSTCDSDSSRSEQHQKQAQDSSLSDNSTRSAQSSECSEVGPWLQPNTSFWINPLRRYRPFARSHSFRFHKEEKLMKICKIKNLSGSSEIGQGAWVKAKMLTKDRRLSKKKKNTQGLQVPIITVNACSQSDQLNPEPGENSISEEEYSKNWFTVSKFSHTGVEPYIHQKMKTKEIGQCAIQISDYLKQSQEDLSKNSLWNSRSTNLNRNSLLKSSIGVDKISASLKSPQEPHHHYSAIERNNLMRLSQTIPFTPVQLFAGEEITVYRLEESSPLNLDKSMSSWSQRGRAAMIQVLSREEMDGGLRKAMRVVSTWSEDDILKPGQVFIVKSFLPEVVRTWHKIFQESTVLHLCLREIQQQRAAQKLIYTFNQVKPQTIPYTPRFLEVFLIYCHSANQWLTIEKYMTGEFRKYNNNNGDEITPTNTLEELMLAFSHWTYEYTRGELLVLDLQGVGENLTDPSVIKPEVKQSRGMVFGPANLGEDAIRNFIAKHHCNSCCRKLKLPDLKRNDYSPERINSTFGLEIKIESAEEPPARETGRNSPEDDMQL

[12] = biological target: Ribosomal protein S6 kinase alpha-2 (Homo sapiens) (UniProt Q15349); conditions: Compound concentration 1000.0 nM
[13] = biological target: Histamine H2 receptor (Homo sapiens) (UniProt P25021); conditions: Compound concentration 10.0 uM
Sequence of Histamine H2 receptor (Homo sapiens) (P25021 whole entry): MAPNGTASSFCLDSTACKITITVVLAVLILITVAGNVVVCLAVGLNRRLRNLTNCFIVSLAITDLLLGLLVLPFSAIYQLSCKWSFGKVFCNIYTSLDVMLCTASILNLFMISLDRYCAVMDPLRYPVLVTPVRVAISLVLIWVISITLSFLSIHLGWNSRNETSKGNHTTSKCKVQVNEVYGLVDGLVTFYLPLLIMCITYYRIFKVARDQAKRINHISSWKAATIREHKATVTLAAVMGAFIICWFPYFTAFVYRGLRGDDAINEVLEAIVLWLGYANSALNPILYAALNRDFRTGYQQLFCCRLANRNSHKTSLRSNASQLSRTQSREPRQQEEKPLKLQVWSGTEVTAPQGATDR

[14] = biological target: Cyclin-dependent kinase 8 (Homo sapiens) (UniProt P49336); conditions: Compound concentration 1000.0 nM
Sequence of Cyclin-dependent kinase 8 (Homo sapiens) (P49336 whole entry): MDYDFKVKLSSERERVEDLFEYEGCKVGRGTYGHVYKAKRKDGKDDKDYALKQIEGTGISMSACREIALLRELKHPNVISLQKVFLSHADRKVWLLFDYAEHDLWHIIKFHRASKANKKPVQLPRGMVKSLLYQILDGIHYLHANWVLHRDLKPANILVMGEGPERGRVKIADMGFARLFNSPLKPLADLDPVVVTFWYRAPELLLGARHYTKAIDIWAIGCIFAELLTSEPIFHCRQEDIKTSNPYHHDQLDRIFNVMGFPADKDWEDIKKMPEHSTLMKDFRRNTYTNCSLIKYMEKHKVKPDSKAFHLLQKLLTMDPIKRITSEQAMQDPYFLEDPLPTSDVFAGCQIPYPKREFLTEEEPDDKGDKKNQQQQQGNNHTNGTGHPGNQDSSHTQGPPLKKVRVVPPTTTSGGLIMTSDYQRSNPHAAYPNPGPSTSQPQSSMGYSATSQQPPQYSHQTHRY

[15] = biological target: Receptor tyrosine-protein kinase erbB-4 (Homo sapiens) (UniProt Q15303); conditions: Compound concentration 1000.0 nM
[16] = biological target: Insulin-like growth factor 1 receptor (Homo sapiens) (UniProt P08069); conditions: Compound concentration 1000.0 nM
[17] = biological target: Wee1-like protein kinase (Homo sapiens) (UniProt P30291); conditions: Compound concentration 1000.0 nM
[18] = biological target: T1, G protein-coupled receptor (Rattus norvegicus, UniProt Q9WU09); experiment: CHO-based cAMP assay (rat)
[19] = biological target: Sodium-dependent dopamine transporter (Homo sapiens) (UniProt Q01959); conditions: Compound concentration 10.0 uM
[20] = biological target: T1, G protein-coupled receptor; experiment: cAMP increase in rat primary cultured striatal neurons
[21] = biological target: Muscarinic acetylcholine receptor M3 (Homo sapiens) (UniProt P20309); conditions: Compound concentration 10.0 uM

Sequence of Rho-associated protein kinase 1 (Homo sapiens) (Q13464 2-1354 limits assumed): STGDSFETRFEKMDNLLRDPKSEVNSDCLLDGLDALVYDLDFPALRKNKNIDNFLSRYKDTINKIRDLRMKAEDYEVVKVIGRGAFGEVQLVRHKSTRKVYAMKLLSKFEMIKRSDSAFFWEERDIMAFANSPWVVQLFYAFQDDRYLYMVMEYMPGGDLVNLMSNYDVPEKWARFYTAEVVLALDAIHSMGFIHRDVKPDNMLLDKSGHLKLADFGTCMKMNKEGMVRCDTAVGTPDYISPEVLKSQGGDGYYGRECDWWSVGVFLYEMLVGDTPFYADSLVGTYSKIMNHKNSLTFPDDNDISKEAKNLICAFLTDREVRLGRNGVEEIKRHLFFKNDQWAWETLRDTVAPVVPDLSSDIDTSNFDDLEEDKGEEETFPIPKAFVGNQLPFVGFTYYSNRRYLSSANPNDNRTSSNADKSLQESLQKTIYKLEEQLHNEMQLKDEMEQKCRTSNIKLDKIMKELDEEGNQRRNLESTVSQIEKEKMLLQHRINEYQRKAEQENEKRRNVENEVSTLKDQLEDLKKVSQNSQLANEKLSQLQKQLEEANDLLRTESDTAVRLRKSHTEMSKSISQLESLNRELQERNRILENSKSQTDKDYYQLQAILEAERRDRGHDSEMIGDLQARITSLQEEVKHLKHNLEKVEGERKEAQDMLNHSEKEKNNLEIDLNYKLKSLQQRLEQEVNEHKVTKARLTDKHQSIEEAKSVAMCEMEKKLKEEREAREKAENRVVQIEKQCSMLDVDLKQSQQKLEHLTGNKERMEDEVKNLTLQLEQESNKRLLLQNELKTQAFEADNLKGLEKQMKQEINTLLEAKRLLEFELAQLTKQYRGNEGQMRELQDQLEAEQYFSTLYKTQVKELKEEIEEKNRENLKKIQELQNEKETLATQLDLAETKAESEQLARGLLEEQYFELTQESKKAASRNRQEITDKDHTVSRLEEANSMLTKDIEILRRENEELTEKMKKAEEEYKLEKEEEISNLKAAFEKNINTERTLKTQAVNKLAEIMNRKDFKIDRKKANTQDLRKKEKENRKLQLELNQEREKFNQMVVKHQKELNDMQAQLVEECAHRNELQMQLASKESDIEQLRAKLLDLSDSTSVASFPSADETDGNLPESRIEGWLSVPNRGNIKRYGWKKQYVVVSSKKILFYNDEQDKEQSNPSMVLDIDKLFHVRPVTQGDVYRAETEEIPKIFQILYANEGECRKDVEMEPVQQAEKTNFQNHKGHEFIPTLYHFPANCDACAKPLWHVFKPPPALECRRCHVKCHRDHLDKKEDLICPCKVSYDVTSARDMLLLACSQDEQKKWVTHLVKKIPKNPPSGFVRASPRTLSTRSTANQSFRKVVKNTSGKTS

SMILES | residual activity [1] [%] | residual activity [2] [%] | residual activity [3] [%] | residual activity [4] [%] | residual activity [5] [%] | residual activity [6] [%] | residual activity [7] [%] | residual activity [8] [%] | residual activity [10] [%] | residual activity [11] [%] | residual activity [12] [%] | inhibition [13] [%] | residual activity [14] [%] | residual activity [15] [%] | residual activity [16] [%] | residual activity [17] [%] | other results
Cc1nc(Cc2cccc(C(F)(F)F)c2)sc1-c1ccc(C(N)=O)nc1 [TP-024n] | 98 | 69 | 82 | 100 | 100 | 100 | 100 | 97 | 83 | 88 | 100 | 6.05 | 100 | 74 | 100 | 96 | EC50 [9]: > 1000 nM (not active)
Cc1cc(-n2nc(Cc3cc(F)cc(C(F)(F)F)c3)nc2C)ccc1C(N)=O [TP-024] | 100 | 100 | 79 | 100 | 99 | 100 | 100 | 100 | 100 | 100 | 100 | 6.28 | 97 | 67 | 98 | 100 | EC50 [18]: 134 nM (active); inhibition [19]: 7.33%; EC50 [20]: 151 nM (active); inhibition [21]: 1.72%
